This is an account of results in patent US10765675B2, “Compositions and methods for treating Ewing family tumors” (priority 2015, dated 2020).

The structures appear in SMILES notation. Counter-ions that a name gives are not always drawn.

One data set concerns TC-32 cells. Kind of data set: cells. As to conditions: Homo sapiens, TC-32, 24 h, read-out: EC50 (concentration of drug that inhibits growth of the tumor cells by 50% as compared to vehicle-treated control). An excerpt: (§1) The combination index (CI) accounts for the dose response of single drugs to determine the combination effect. […] Enzyme Regul. 22:27-55. The equation for calculating CI is as follows: […]

Another data set has as its system TC-71 cells. Kind of data set: cells. As to conditions: Homo sapiens, TC-71, 24 h, read-out: EC50 (concentration of drug that inhibits growth of the tumor cells by 50% as compared to vehicle-treated control).
From the text: as §1

The next data set concerns MB231-Bo cancer cells. As to conditions: same doses as tested on TC-32 and TC-71 cells.
In the next data set the test system is 3T3 fibroblast cells. To be noted: same doses as tested on TC-32 and TC-71 cells.
For data set [1] the following is noted: metformin 500-1000 mg/day; cited from earlier work.
For data set [2], the system named is DNA damage and DNA repair pathway genes in TC-32 cells. As to conditions: 12 h.
From the text: (§2) Housekeeping genes were included on the array to normalize RNA amounts.
Data set [3] relates to DNA damage and DNA repair pathway genes in TC-71 cells. To be noted: 12 h.
From the text: as §2
In a further data set the test system is sarcomas. As to conditions: cited from earlier work.

Experimental for 3T3 fibroblast cells: (§3) The TC-32 cell line was derived from a newly diagnosed PNET patient and the TC-71 cell line was derived from a tumor recurrent after chemotherapy in a Ewing's sarcoma patient.
(§4) The cells were cultured in DMEM media supplemented with 10% FBS, 1% L-glutamate, 1% sodium pyruvate, 1% penicillin/streptomycin, and 1% non-essential amino acids in a humidified atmosphere at 37° C. and in 5% CO2. The ratio of cells to well surface and media volume was kept constant in all experiments.
(§5) Treated cells were imaged with an IVIS200 system (Xenogen Corporation, Alameda, Calif.) using the bioluminescent imaging function. An average of three kinetic bioluminescent acquisitions was obtained within 5 min Regions of interest were automatically drawn over wells and quantified with Living Image Software version 2.50.1. Data was analyzed based on total photon flux emission minus the background photon flux of blank wells. Three separate experiments were performed, with six replicate wells for each data point.
Experimental for MB231-Bo cancer cells: as §3, §4, §5

With `CN(C)C(=N)N=C(N)N` [metformin, Metformin hydrochloride], the EC50 was found to be 11.8 mM with TC-32 cells and 11.6 mM with TC-71 cells. In addition, the Cytotoxicity result with MB231-Bo cancer cells and in the data set on 3T3 fibroblast cells was “did not show any cytotoxicity” in each case. Also, the Plasma levels result in data set [1] is “about 1.1 mg/L”. In addition, the “Plasma levels, molar equivalent” value in data set [1] is 7 µM.
As for `Cc1ccc(NC(=O)c2ccc(CN3CCN(C)CC3)cc2)cc1Nc1nccc(-c2cccnc2)n1` [imatinib, imatinib mesylate], the Cytotoxicity entry with MB231-Bo cancer cells and in the data set on 3T3 fibroblast cells was “did not show any cytotoxicity” each time. For the same compound, the “Expression of 9 DNA repair genes (PRKDC, LIG4, MPG, ACTB, NEIL2, MLH1, RPA3, ATXN3, ERCC5)” value in data set [2] was “significantly up-regulated”. Moreover, the “Expression of 11 DNA repair genes (MMS19, LIG4, B2M, RFC1, PARP2, BRCA2, TREX1, XPC, RAD23A, MUTYH, APEX1)” value in data set [3] is on record as “significantly up-regulated”.
With `COc1cccc2c1C(=O)c1c(O)c3c(c(O)c1C2=O)C[C@@](O)(C(=O)CO)C[C@@H]3O[C@H]1C[C@H](N)[C@H](O)[C@H](C)O1` [doxorubicin], the “Side-effects limiting clinical utility” value in the data set with sarcomas (clinical use) was “irreversible cardiac toxicity”. The “Share of sarcomas that respond to the drug” value in the data set on sarcomas (standard systemic therapy) is reported as 20%.
